Read-outs that look alike come from different tables or passages of the source. Bridge positions count the residues as written; N and C are the ends. Square brackets hold non-standard residues; d marks the D form. Ends that are not written are not given here. I, II: the chains in the order shown. Trp(6-Br) = N[C@@H](Cc1c[nH]c2cc(Br)ccc12)C(=O)O
Experiments:
Type in all cases: cell-based
[1] = test system: Bacillus subtilis (ATCC 23857)
Description: (§1) Organic phase extract, SPE eluates and HPLC-fractions were screened for antibacterial activity against two strains of Gram-positive and two strains of Gram-negative bacteria; Corynebacterium glutamicum (ATCC 13032), Staphylococcus aureus (ATCC 9144), Pseudomonas aeruginosa #1 (ATCC 27853) and Escherichia coli #1 (ATCC 25922). For extended antimicrobial bioactivity screening, the following bacterial strains were used, three strains of Gram-positive bacteria; S. epidermidis #1 (5179-R1) kindly provided by Holger Rohde, S. epidermidis #2, RP62A (ATCC 35984) and Bacillus subtilis (ATCC 23857) in addition to the Gram-negative P. aeruginosa #2, PA 01 (ATCC 15692, DSM 19880) and E. coli #2, NR 698 (MC4100/ptD4213).
(§2) Cultures stored at -80°C were smeared onto agar plates and cultured for 24 h at 35°C. One colony of each bacterial strain was transferred to 5 ml liquid Müller-Hinton (MH, Difco, Lawrence, KS, USA) medium in a glass tube and left shaking at room temperature overnight at 600 rpm. The cultures of actively growing bacteria (20 μl) were further inoculated in 5 ml MH medium and left shaking for 2 h at room temperature. The antibacterial assays were performed as previously described by. Briefly, the bacterial cultures were diluted with medium to 1.3–1.5 × 10^4 bacteria/ml final concentrations and an aliquot of 50 μl was added to each well in 96-well Nunclon^TM microtiter plates (Nagle Nunc Int., Denmark) preloaded with 50 μl test sample solutions, i.e. extracts, eluates or peptides.
(§3) The test plates were incubated for 24 h at 35°C with optical density (OD595) recorded every hour using an Envision 2103 multilabel reader, controlled by the Wallac Envision manager (PerkinElmer, CT, USA). Antibacterial activity was defined as a sample showing >90% inhibition (as measured by optical density) compared to the negative (growth) controls, consisting of bacteria and water. Oxytetracycline (20 μM) served as a positive (inhibition) control. The minimum inhibitory concentration (MIC) was defined as the lowest concentration of a sample displaying >90% inhibition.
(§4) ACN-phases and SPE eluates were tested with two-fold serial dilutions ranging from 5.0 to 0.005 mg/ml (5.0, 2.5, 1.25, 0.63, 0.31, 0.16, 0.08, 0.04, 0.02, 0.01, 0.005 mg/ml) whereas HPLC-fractions were tested undiluted for antibacterial activity. Pure, native peptides and synthetic peptides (described in section 2.11) were tested for antimicrobial activity in concentrations ranging from 100 to 0.1 μM in two-fold serial dilutions (100, 50, 25, 12.5, 6.25, 3.13, 1.56, 0.78, 0.39, 0.20, 0.10 μM). Antimicrobial assays involving natural peptides (i.e. fractionated natural material) were run only once due to limited quantities, whereas all other assays were run in triplicates.

[2] = test system: Corynebacterium glutamicum (ATCC 13032)
Description: as §1, §2, §3, §4

[3] = test system: E. coli #2, NR 698 (MC4100/ptD4213); settings: for MIC E. coli #2: MH medium, 24 h at 35°C, OD595, >90% inhibition, value of Table 2, triplicates
Description: as §1, §2, §3, §4

[4] = test system: Escherichia coli #1 (ATCC 25922)
Description: as §1, §2, §3, §4

[5] = test system: P. aeruginosa #2, PA 01 (ATCC 15692, DSM 19880); settings: for MIC P. aeruginosa #2: ATCC 15692, 24 h
Description: as §1, §2, §3, §4

[6] = test system: Pseudomonas aeruginosa #1 (ATCC 27853)
Description: as §1, §2, §3, §4

[7] = test system: S. epidermidis #1 (5179-R1); settings: for MIC S. epidermidis #1: #1 (5179-R1, 24 h)
Description: as §1, §2, §3, §4

[8] = test system: S. epidermidis #2, RP62A (ATCC 35984); settings: for MIC S. epidermidis #2: ATCC 35984, 24 h
Description: as §1, §2, §3, §4

[9] = test system: Staphylococcus aureus (ATCC 9144)
Description: as §1, §2, §3, §4

Aureobasidium pullulans = settings: for MIC A. pullulans: 24 h
Method: (§5) The synthetic peptides (see section 2.11) were also screened for antifungal activity against Candida albicans (ATCC 10231), Saccharomyces cerevisiae, Rhodotorula sp., Aureobasidium pullulans and Cladosporium sp. The antifungal assay was performed as described previously. Briefly, fungal spores were dissolved in potato dextrose broth (Difco, Lawrence, KS, USA) to a concentration of 4 × 10^5 spores/ml. The spores (50 μl) were inoculated on 96-well Nunclon^TM microtiter plates containing the synthetic peptides (50 μl) dissolved in MQ-H2O. […] MIC was defined as the lowest concentration of peptide giving no visible fungal growth. The negative (growth) control contained medium and fungal solution.
as §4

[10] = test system: Candida albicans (ATCC 10231); settings: for MIC C. albicans: ATCC 10231, 24 h
Method: as §5, §4

Cladosporium sp. = settings: for MIC Cladosporium sp.: 24 h
Method: as §5, §4

Rhodotorula sp. = settings: for MIC Rhodotorula sp.: potato dextrose broth, 24 h at room temperature, visual, no visible fungal growth, value of Table 2, triplicates
Method: as §5, §4

Saccharomyces cerevisiae = settings: for MIC S. cerevisiae: 24 h
Method: as §5, §4

[11] = test system: Gram-positive and Gram-negative bacteria (tested strains); settings: 24 h
Description: as §1, with “(MC4100/ptD4213). […]” for “(MC4100/ptD4213).”
The test plates were incubated for 24 h at 35°C with optical density (OD595) recorded every hour using an Envision 2103 multilabel reader, controlled by the Wallac Envision manager (PerkinElmer, CT, USA). […]
ACN-phases and SPE eluates were tested with two-fold serial dilutions ranging from 5.0 to 0.005 mg/ml (5.0, 2.5, 1.25, 0.63, 0.31, 0.16, 0.08, 0.04, 0.02, 0.01, 0.005 mg/ml) whereas HPLC-fractions were tested undiluted for antibacterial activity. […] Antimicrobial assays involving natural peptides (i.e. fractionated natural material) were run only once due to limited quantities, whereas all other assays were run in triplicates.

human red blood cells = assay: Haemolytic activity assay
Method: Synthesised peptide analogues of EeCentrocin 1 and 2 were screened for eukaryotic cell-toxicity with a haemolytic activity assay using human red blood cells as described previously. The assay was performed on 96-well U-shaped microtiter plates (Nagle Nunc) with 50 μl peptide sample, 40 μl phosphate-buffered saline (PBS) and 10 μl red blood cells. The final peptide concentrations ranged from 100 to 0.1 μM in two-fold serial dilutions. After one hour of incubation at 37°C in a shaker, the plate was centrifuged at 200 g for 5 min and the supernatants (60 μl) were carefully transferred to a new flat-bottomed polycarbonate microtiter plate (Nagle Nunc) and absorbance at 550 nm was measured on a Synergy H1 multimode reader (BioTek, VT, USA). Cell suspension added 0.05% Triton X-100 (Sigma-Aldrich, MO, USA) in PBS served as positive (100% haemolysis) control and cell suspension added PBS served as negative (0% haemolysis) control. The percent haemolysis was calculated using the formula [(Asample-Abaseline)/(Atriton-Abaseline)]×100. The experiment was performed in duplicates.

[12] = MH medium, 24 h at 35°C, OD595, >90% inhibition, value of Table 2, native peptides run once, synthetic in triplicates
[13] = MH medium, 24 h at 35°C, OD595, lowest concentration with >90% inhibition, value of Table 2, native peptides run once, synthetic in triplicates

GWWRRTVDKVRNAGRKVAGFASKACGALGH [EeCentrocin 1 HC]
>100 µM: MIC Cladosporium sp. (Cladosporium sp.) | MIC raw data Cladosporium sp. (Cladosporium sp.; parallel 1 of three) | MIC raw data Cladosporium sp. (Cladosporium sp.; parallel 2 of three) | MIC raw data Cladosporium sp. (Cladosporium sp.; parallel 3 of three)
12.5 µM: MIC A. pullulans (Aureobasidium pullulans) | MIC raw data A. pullulans (Aureobasidium pullulans; parallel 1 of three) | MIC raw data A. pullulans (Aureobasidium pullulans; parallel 2 of three) | MIC raw data A. pullulans (Aureobasidium pullulans; parallel 3 of three) | MIC raw data Rhodotorula sp. (Rhodotorula sp.; parallel 1 of three) | MIC raw data Rhodotorula sp. (Rhodotorula sp.; parallel 2 of three) | MIC raw data Rhodotorula sp. (Rhodotorula sp.; parallel 3 of three) | MIC Rhodotorula sp. (Rhodotorula sp.)
0.39 µM: MIC C. glutamicum ([2]; ATCC 13032, 24 h) | MIC raw data C. glutamicum ([2]; parallel 1 of three) | MIC raw data C. glutamicum ([2]; parallel 2 of three) | MIC raw data C. glutamicum ([2]; parallel 3 of three)
0.39 to 6.25 µM: MIC range towards bacteria [11]
1.56 µM: MIC B. subtilis ([1]; MH medium, 24 h at 35°C, OD595, lowest concentration with >90% inhibition, value of Table 2, synthetic peptides in triplicates) | MIC raw data B. subtilis ([1]; parallel 1 of three) | MIC raw data B. subtilis ([1]; parallel 2 of three) | MIC E. coli #2 [3] | MIC raw data E. coli #2 ([3]; parallel 1 of three) | MIC raw data E. coli #2 ([3]; parallel 2 of three) | MIC raw data E. coli #2 ([3]; parallel 3 of three) | MIC P. aeruginosa #1 [6, 12] | MIC raw data P. aeruginosa #1 ([6]; parallel 1 of three) | MIC raw data P. aeruginosa #1 ([6]; parallel 2 of three) | MIC raw data P. aeruginosa #1 ([6]; parallel 3 of three)
3.13 µM: MIC P. aeruginosa #2 [5] | MIC raw data P. aeruginosa #2 ([5]; parallel 1 of three) | MIC raw data P. aeruginosa #2 ([5]; parallel 2 of three) | MIC raw data P. aeruginosa #2 ([5]; parallel 3 of three) | MIC S. epidermidis #2 [8] | MIC raw data S. epidermidis #2 ([8]; parallel 1 of three) | MIC raw data S. epidermidis #2 ([8]; parallel 2 of three) | MIC raw data S. epidermidis #2 ([8]; parallel 3 of three) | MIC S. aureus ([9]; ATCC 9144, 24 h) | MIC raw data S. aureus ([9]; parallel 1 of three) | MIC raw data S. aureus ([9]; parallel 2 of three) | MIC raw data S. aureus ([9]; parallel 3 of three)
50 µM: MIC S. cerevisiae (Saccharomyces cerevisiae) | MIC raw data S. cerevisiae (Saccharomyces cerevisiae; parallel 1 of three) | MIC raw data S. cerevisiae (Saccharomyces cerevisiae; parallel 2 of three) | MIC raw data S. cerevisiae (Saccharomyces cerevisiae; parallel 3 of three)
0.78 µM: MIC raw data B. subtilis ([1]; parallel 3 of three) | MIC E. coli #1 ([4]; ATCC 25922, 24 h) | MIC raw data E. coli #1 ([4]; parallel 1 of three) | MIC raw data E. coli #1 ([4]; parallel 2 of three) | MIC raw data E. coli #1 ([4]; parallel 3 of three)
6.25 µM: MIC S. epidermidis #1 [7] | MIC raw data S. epidermidis #1 ([7]; parallel 1 of three) | MIC raw data S. epidermidis #1 ([7]; parallel 2 of three) | MIC raw data S. epidermidis #1 ([7]; parallel 3 of three)
100 µM: MIC C. albicans [10] | MIC raw data C. albicans ([10]; parallel 1 of three) | MIC raw data C. albicans ([10]; parallel 2 of three) | MIC raw data C. albicans ([10]; parallel 3 of three)

XNPFKKIAHRXCYPKNE (bicyclic or more) [EeStrongylocin 2, cysteine-rich antimicrobial peptide from E. esculentus with 3 disulphide bonds and a 6-Br-Trp]
1.56 µM: MIC C. glutamicum [2, 13] | MIC P. aeruginosa #1 [6, 12]
3.13 µM: MIC S. aureus [9, 13]
0.78 µM: MIC E. coli #1 [4, 12]

CC[C@H](C)[C@H](NC(=O)[C@@H](N)CC(=O)O)C(=O)NCC(=O)N[C@@H](CCCCN)C(=O)N[C@@H](Cc1ccc(O)cc1)C(=O)N[C@@H](CS)C(=O)NCC(=O)N[C@@H](Cc1ccc(O)cc1)C(=O)N[C@@H](C)C(=O)N[C@@H](Cc1c[nH]cn1)C(=O)N[C@@H](C)C(=O)N[C@@H](CC(C)C)C(=O)N[C@@H](CC(N)=O)C(=O)O (stereo in doubt) [EeCentrocin 1 LC]
>100 µM: MIC B. subtilis ([1]; ATCC 23857, 24 h) | MIC C. glutamicum ([2]; ATCC 13032, 24 h) | MIC E. coli #2 [3] | MIC E. coli #1 ([4]; ATCC 25922, 24 h) | MIC P. aeruginosa #2 [5] | MIC P. aeruginosa #1 ([6]; ATCC 27853, 24 h) | MIC S. epidermidis #1 [7] | MIC S. epidermidis #2 [8] | MIC S. aureus ([9]; ATCC 9144, 24 h) | MIC A. pullulans (Aureobasidium pullulans) | MIC C. albicans [10] | MIC Cladosporium sp. (Cladosporium sp.) | MIC Rhodotorula sp. (Rhodotorula sp.) | MIC S. cerevisiae (Saccharomyces cerevisiae)

I: G[Trp(6-Br)][Trp(6-Br)]RRTVDKVRNAGRKVAGFASKACGALGH-OH / II: DIGKYCGYAHALN-NH2 (disulfide I:25-II:6) [EeCentrocin 1]
0.1 µM: MIC E. coli #1 ([4]; ATCC 25922, 24 h)
0.78 µM: MIC C. glutamicum ([2]; ATCC 13032, 24 h) | MIC P. aeruginosa #1 ([6]; ATCC 27853, 24 h) | MIC S. aureus ([9]; ATCC 9144, 24 h)

Triton X-100 [Lysis (0.05% Triton X-100), reference compound]
0.24: Absorbance at 550nm, lysis control (human red blood cells)
